Source: PubChem BioAssay AID1963841 (Molecular Pharmacology Branch, DTP, NCI, 2024)

Tested on: 439559-082-T-J2-PDC spheroid viability
Assay: Anticancer human tumor 439559-082-T-J2-PDC patient-derived colon adenocarcinoma cell line growth inhibition [POLQ]
Settings: spheroids with HUVEC and MSC; for IC50: curve of first compound; for viability, T/C: stronger effect = lower value
In short: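 Patient-derived tumour cells were co-cultured with HUVEC and mesenchymal stem cells as multicellular spheroids at 37 °C. They were treated with POLQ inhibitors (novobiocin, ART-558, RP6685) alone or combined with other agents. Top concentrations were at or near clinical Cmax (otherwise 10 microM; SN-38 at 1 microM), decreasing in half-log steps.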
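Also: spheroids exposed to compounds for seven days before readout.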
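For viability, T/C in this document: 100% = DMSO vehicle control viability.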

Structure (SMILES): CC(=O)O[C@H]1C(=O)[C@@]2(C)[C@H]([C@H](OC(=O)c3ccccc3)[C@]3(O)C[C@H](OC(=O)[C@H](O)[C@@H](NC(=O)c4ccccc4)c4ccccc4)C(C)=C1C3(C)C)[C@]1(OC(C)=O)CO[C@@H]1C[C@@H]2O + Nc1ccc(C#CCN(C(=O)Cc2ncc(C(F)(F)F)cc2C(F)(F)F)c2ccc(F)cc2)nn1
- IC50 (second compound 0.0316 µM): 730 nM
- IC50 (second compound 0.1 µM): 1250 nM
- IC50 (second compound 0.316 µM): 807 nM
- IC50 (second compound 1 µM): 898 nM
- IC50 (second compound 3.16 µM): 511 nM
- IC50 (second compound 10 µM): 363 nM
- viability, T/C (second compound 0.0316 µM, first compound 0.00949 µM): 51.6%
- viability, T/C (second compound 0.0316 µM, first compound 0.03 µM): 54.9%
- viability, T/C (second compound 0.0316 µM, first compound 0.0949 µM): 75.6%
- viability, T/C (second compound 0.0316 µM, first compound 0.3 µM): 77.2%
- viability, T/C (second compound 0.0316 µM, first compound 0.949 µM): 45.6%
- viability, T/C (second compound 0.0316 µM, first compound 3 µM): 22.1%
- viability, T/C (second compound 0.1 µM, first compound 0.00949 µM): 53%
- viability, T/C (second compound 0.1 µM, first compound 0.03 µM): 53.8%
- viability, T/C (second compound 0.1 µM, first compound 0.0949 µM): 72.7%
- viability, T/C (second compound 0.1 µM, first compound 0.3 µM): 77.3%
- viability, T/C (second compound 0.1 µM, first compound 0.949 µM): 53.2%
- viability, T/C (second compound 0.1 µM, first compound 3 µM): 25.8%
- viability, T/C (second compound 0.316 µM, first compound 0.00949 µM): 54%
- viability, T/C (second compound 0.316 µM, first compound 0.03 µM): 58.5%
- viability, T/C (second compound 0.316 µM, first compound 0.0949 µM): 79.9%
- viability, T/C (second compound 0.316 µM, first compound 0.3 µM): 78.7%
- viability, T/C (second compound 0.316 µM, first compound 0.949 µM): 47.1%
- viability, T/C (second compound 0.316 µM, first compound 3 µM): 18.9%
- viability, T/C (second compound 1 µM, first compound 0.00949 µM): 46.2%
- viability, T/C (second compound 1 µM, first compound 0.03 µM): 56.7%
- viability, T/C (second compound 1 µM, first compound 0.0949 µM): 82.3%
- viability, T/C (second compound 1 µM, first compound 0.3 µM): 79.8%
- viability, T/C (second compound 1 µM, first compound 0.949 µM): 49.2%
- viability, T/C (second compound 1 µM, first compound 3 µM): 19%
- viability, T/C (second compound 3.16 µM, first compound 0.00949 µM): 37.2%
- viability, T/C (second compound 3.16 µM, first compound 0.03 µM): 53.5%
- viability, T/C (second compound 3.16 µM, first compound 0.0949 µM): 81.9%
- viability, T/C (second compound 3.16 µM, first compound 0.3 µM): 69%
- viability, T/C (second compound 3.16 µM, first compound 0.949 µM): 37.9%
- viability, T/C (second compound 3.16 µM, first compound 3 µM): 19.5%
- viability, T/C (second compound 10 µM, first compound 0.00949 µM): 42.8%
- viability, T/C (second compound 10 µM, first compound 0.03 µM): 48%
- viability, T/C (second compound 10 µM, first compound 0.0949 µM): 68.8%
- viability, T/C (second compound 10 µM, first compound 0.3 µM): 51.7%
- viability, T/C (second compound 10 µM, first compound 0.949 µM): 38%
- viability, T/C (second compound 10 µM, first compound 3 µM): 21.9%
